From patent US20240116985A1, “STAPLED PEPTIDES AND METHODS THEREOF” (priority 2020, published 2024)
Values after ≈ are worked out from the molar mass of the structure shown. Where two headings read alike, the source gives them in different places.

Key:
[1] = biological target: T1, beta-catenin/TCF4 engagement (Homo sapiens, UniProt P35222); assay: Nano-BRET target engagement assay (B-cat-Halo & TCF4-Luc in HEK293 cells); assay type: cell-based
T1 construct: expressed in transfected cells; host or cells: HEK293
T1 sequence (P35222 1-781): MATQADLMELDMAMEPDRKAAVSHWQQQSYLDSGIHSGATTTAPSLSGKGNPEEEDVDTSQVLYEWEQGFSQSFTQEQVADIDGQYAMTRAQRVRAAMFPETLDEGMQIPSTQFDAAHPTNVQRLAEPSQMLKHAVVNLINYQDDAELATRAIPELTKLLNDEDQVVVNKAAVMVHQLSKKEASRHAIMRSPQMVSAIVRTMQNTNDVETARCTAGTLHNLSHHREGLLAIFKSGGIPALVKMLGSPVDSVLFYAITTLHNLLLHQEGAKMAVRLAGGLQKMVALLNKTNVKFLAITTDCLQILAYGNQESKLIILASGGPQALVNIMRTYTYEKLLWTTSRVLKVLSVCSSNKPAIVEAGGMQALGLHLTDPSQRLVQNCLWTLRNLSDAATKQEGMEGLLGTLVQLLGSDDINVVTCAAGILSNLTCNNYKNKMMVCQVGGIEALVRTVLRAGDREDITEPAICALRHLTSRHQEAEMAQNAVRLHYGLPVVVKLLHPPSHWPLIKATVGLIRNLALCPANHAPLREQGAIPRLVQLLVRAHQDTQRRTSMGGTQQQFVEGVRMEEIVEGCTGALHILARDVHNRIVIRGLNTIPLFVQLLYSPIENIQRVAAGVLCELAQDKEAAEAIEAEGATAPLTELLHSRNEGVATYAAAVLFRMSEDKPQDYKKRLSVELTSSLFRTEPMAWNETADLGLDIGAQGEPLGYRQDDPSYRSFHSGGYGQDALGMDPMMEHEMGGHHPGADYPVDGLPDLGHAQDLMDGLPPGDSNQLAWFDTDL

Solubility in PBS = assay type: physicochemical; details: Solubility (uM)
Procedure, shortened: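 The PBS solution was ultracentrifuged and the supernatant analyzed by HPLC. Its peak area was divided by that of a 50 μM peptide DMSO reference injection and multiplied by 50 uM to give solubility.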

[2] = biological target: T2, full-length beta-Catenin (Uniprot ID P35222) (Homo sapiens, UniProt P35222); assay: Fluorescence polarization IC50 (beta-catenin / 5FAM-TCF4 10-53 competition); assay type: binding; details: read-out: beta-Catenin FP IC50
T2 construct: 10 nM full-length beta-Catenin (Uniprot ID P35222)
T2 sequence (P35222 1-781): T1 sequence (P35222 1-781)

CHI Log D procedure = assay type: physicochemical; details: pH 7.4, CHI Log D
[3] = absolute IC50, read-out: NanoBRET Abs IC50

| IC50 [1, 3] | Solubility (Solubility in PBS) | IC50 ([2]; fluorescence polarization) | chromatographic logD (CHI Log D procedure) | IC50 ([1]; read-out: NanoBRET Abs IC50) | IC50 [2] | IC50 ([1]; read-out: NanoBRET IC50) | Structure (SMILES) |
| --- | --- | --- | --- | --- | --- | --- | --- |
| 15.8 µM | 22 µM (≈ 41.3 µg/mL) | 17.5 nM | 2.5 |  |  |  | CC(=O)N1CCC[C@]12CC=CCCCC1(CCCC=CCCCCCC[C@@](C)(C(=O)N[C@@H](Cc3ccccc3)C(=O)N[C@@H](Cc3csc4ccccc34)C(=O)N[C@@H](Cc3c[nH]cn3)C(N)=O)NC(=O)[C@H](CC(N)=O)NC(=O)[C@H](Cc3ccccc3)NC(=O)[C@H](C)NC(=O)[C@H](C)NC(=O)[C@H](CC(=O)O)NC(=O)[C@H](CC(=O)O)NC1=O)NC(=O)[C@H](CC(C)(C)C)NC(=O)[C@H](CC(=O)O)NC2=O (stereo partly drawn) [I-582, Ac-PL3-Asp-Npg-B5-Asp-Asp-Ala-Ala-Phe-Asn-S8-Phe-BztA-His-NH2] |
|  | 20 µM (≈ 38.3 µg/mL) |  | 2.29 | 13.7 µM | 33 nM |  | CC(=O)N1CCC[C@]12CC=CCCCC1(CCCC=CCCCOC(=O)N3CC[C@@](C(=O)N[C@@H](Cc4ccccc4F)C(=O)N[C@@H](Cc4csc5ccccc45)C(=O)N[C@@H](CCC(N)=O)C(N)=O)(C3)NC(=O)[C@H]([C@@H](C)O)NC(=O)[C@H](Cc3ccccc3)NC(=O)[C@H](C)NC(=O)[C@H](C)NC(=O)[C@H](CC(N)=O)NC(=O)[C@H](CC(=O)O)NC1=O)NC(=O)[C@H](CC(C)(C)C)NC(=O)[C@H](CC(=O)O)NC2=O (stereo partly drawn) [I-1022, Ac-PL3-Asp-Npg-B5-Asp-Asn-Ala-Ala-Phe-Thr-PyrS2-2FF-BztA-Gln-NH2] |
| 3.5 µM | 46 µM (≈ 87.3 µg/mL) | 21 nM | 2.57 |  |  |  | CC(=O)N1CCC[C@]12CC=CCCCC1(CCCC=CCCCCCC[C@@](C)(C(=O)N[C@@H](Cc3ccccc3)C(=O)N[C@@H](Cc3csc4ccccc34)C(=O)N[C@@H](CCC(N)=O)C(N)=O)NC(=O)[C@H](CCC(N)=O)NC(=O)[C@H](Cc3ccccc3)NC(=O)[C@H](C)NC(=O)[C@H](C)NC(=O)[C@H](CCC(=O)O)NC(=O)[C@H](CC(=O)O)NC1=O)NC(=O)[C@H](CCC(C)C)NC(=O)[C@H](CC(=O)O)NC2=O (stereo partly drawn) [I-545, Ac-PL3-Asp-hLeu-B5-Asp-Glu-Ala-Ala-Phe-Gln-S8-Phe-BztA-Gln-NH2] |
|  | 35 µM (≈ 66.6 µg/mL) |  | 2.31 |  | 6 nM | 10.7 µM | CC(=O)N1CCC[C@]12CC=CCCCC1(CCCC=CCCCOC(=O)N3CC[C@@](C(=O)N[C@@H](Cc4ccsc4)C(=O)N[C@@H](Cc4csc5ccccc45)C(=O)N[C@@H](CCC(N)=O)C(N)=O)(C3)NC(=O)[C@H](CC(N)=O)NC(=O)[C@H](Cc3ccccc3)NC(=O)[C@H](C)NC(=O)[C@H](C)NC(=O)[C@H]([C@@H](C)O)NC(=O)[C@H](CC(=O)O)NC1=O)NC(=O)[C@H](CC(C)(C)C)NC(=O)[C@H](CC(=O)O)NC2=O (stereo partly drawn) [I-844, Ac-PL3-Asp-Npg-B5-Asp-Thr-Ala-Ala-Phe-Asn-PyrS2-3Thi-BztA-Gln-NH2] |
|  | 36 µM (≈ 71.1 µg/mL) |  | 2.06 | 14.7 µM | 7 nM |  | CC(=O)N1CCC[C@]12CC=CCCCC1(CCCC=CCCCOC(=O)N3CC[C@@](C(=O)N[C@@H](Cc4ccsc4)C(=O)N[C@@H](Cc4csc5ccccc45)C(=O)N[C@@H](CC(N)=O)C(=O)N[C@H](C)C(N)=O)(C3)NC(=O)[C@H](CC(N)=O)NC(=O)[C@H](Cc3ccccc3)NC(=O)[C@H](C)NC(=O)[C@H](C)NC(=O)[C@H](CC(=O)O)NC(=O)[C@H](CC(=O)O)NC1=O)NC(=O)[C@H](CC(C)(C)C)NC(=O)[C@H](CC(=O)O)NC2=O (stereo partly drawn) [I-824, Ac-PL3-Asp-Npg-B5-Asp-Asp-Ala-Ala-Phe-Asn-PyrS2-3Thi-BztA-Asn-dAla-NH2] |
|  | 33 µM (≈ 62 µg/mL) |  | 3.04 | 11.4 µM | 27 nM |  | CC(=O)N1CCC[C@]12CC=CCCCC1(CCCC=CCCCCCC[C@@](C)(C(=O)N[C@@H](Cc3ccccc3Cl)C(=O)N[C@@H](Cc3csc4ccccc34)C(=O)N[C@H](C(N)=O)[C@@H](C)O)NC(=O)[C@H]([C@@H](C)O)NC(=O)[C@H](Cc3ccccc3)NC(=O)[C@H](C)NC(=O)[C@H](C)NC(=O)[C@H](CCC(=O)O)NC(=O)[C@H](CC(=O)O)NC1=O)NC(=O)[C@H](CC(C)(C)C)NC(=O)[C@H](CC(=O)O)NC2=O (stereo partly drawn) [I-1091, Ac-PL3-Asp-Npg-B5-Asp-Glu-Ala-Ala-Phe-Thr-S8-2C1F-BztA-Thr-NH2] |
